Calls of active or inactive are those of the source. The calls are words filed in the database; no cut-off is given here.
Assays:
SW480 [1] = test: Antiproliferative activity against human SW480 cells assessed as reduction in cell viability at 20 uM measured after 72 hours by MTT assay relative to control; assay type: functional
HL-60 [2] = test: Antiproliferative activity against human HL60 cells assessed as reduction in cell viability at 20 uM measured after 72 hrs by MTT assay relative to control; assay type: functional
SW480 [3] = test: Antiproliferation activity against human SW480 cells assessed as reduction in cell viability measured after 72 hours by MTT assay; assay type: functional, cell-based; settings: SW480, 72 h
HL-60 [4] = test: Antiproliferation activity against human HL60 cells assessed as reduction in cell viability measured after 72 hrs by MTT assay; assay type: functional, cell-based; settings: HL-60, 72 h
[5] = target: T1, DNA topoisomerase 1 (Homo sapiens) (UniProt P11387); test: Inhibition of human TOP1 assessed as decrease in relaxation of supercoiled DNA using supercoiled plasmid DNA pGEM1 as substrate at 100 uM preincubated for 30 mins by SDS gel electrophoresis method; design: scale not given: the % may be the effect or the level left
T1 sequence (whole entry): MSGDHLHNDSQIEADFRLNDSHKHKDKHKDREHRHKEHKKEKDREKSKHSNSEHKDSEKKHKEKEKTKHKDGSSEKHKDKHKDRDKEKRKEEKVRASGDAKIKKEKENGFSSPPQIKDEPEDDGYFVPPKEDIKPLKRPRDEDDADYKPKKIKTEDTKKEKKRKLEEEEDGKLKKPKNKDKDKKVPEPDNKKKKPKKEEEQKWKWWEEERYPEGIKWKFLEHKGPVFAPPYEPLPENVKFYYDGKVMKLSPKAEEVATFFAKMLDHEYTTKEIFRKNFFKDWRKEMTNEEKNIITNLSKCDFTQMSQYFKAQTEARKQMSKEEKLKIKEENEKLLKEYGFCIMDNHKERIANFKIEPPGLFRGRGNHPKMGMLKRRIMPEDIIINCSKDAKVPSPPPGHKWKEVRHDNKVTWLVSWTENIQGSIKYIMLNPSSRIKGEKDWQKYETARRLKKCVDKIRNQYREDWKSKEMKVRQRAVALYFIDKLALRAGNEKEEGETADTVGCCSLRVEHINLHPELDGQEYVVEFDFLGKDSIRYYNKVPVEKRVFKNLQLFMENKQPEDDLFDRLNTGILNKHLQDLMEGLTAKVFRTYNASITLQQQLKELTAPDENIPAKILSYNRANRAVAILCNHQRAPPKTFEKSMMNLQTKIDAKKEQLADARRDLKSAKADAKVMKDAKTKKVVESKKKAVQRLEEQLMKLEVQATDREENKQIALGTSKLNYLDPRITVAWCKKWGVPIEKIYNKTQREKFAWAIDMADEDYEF

[6] = target: T1, DNA topoisomerase 1 (Homo sapiens); test: Inhibition of human TOP1 assessed as decrease in relaxation of supercoiled DNA using supercoiled plasmid DNA pGEM1 as substrate at 10 uM preincubated for 30 mins by SDS gel electrophoresis method; design: scale not given: the % may be the effect or the level left
[7] = target: T1, DNA topoisomerase 1 (Homo sapiens); test: Inhibition of human TOP1 assessed as decrease in relaxation of supercoiled DNA using supercoiled plasmid DNA pGEM1 as substrate at 1 uM preincubated for 30 mins by SDS gel electrophoresis method; design: scale not given: the % may be the effect or the level left
HL-60 [8] = test: Induction of cell cycle arrest in human HL60 cells assessed as accumulation of cells at G2 phase incubated for 24 hrs by propidium iodide staining based flow cytometric analysis; assay type: functional
SW480 [9] = test: Induction of cell death in human SW480 cells assessed as accumulation of large nuclei incubated for 72 hrs by Hoechst […] staining based fluorescence microscopic method; assay type: functional
SW480 [10] = test: Induction of cell death in human SW480 cells assessed as accumulation of large cells incubated for 72 hrs by Hoechst […] staining based fluorescence microscopic method; assay type: functional
HL-60 [11] = test: Induction of cell cycle arrest in human HL60 cells assessed as accumulation of cells at G2 phase at 20 to 35 nM incubated for 24 hrs by propidium iodide staining based flow cytometric analysis; assay type: functional
HL-60 [12] = test: Induction of cell cycle arrest in human HL60 cells assessed as accumulation of cells at S phase at 20 to 35 nM incubated for 24 hrs by propidium iodide staining based flow cytometric analysis; assay type: functional
SW480 [13] = test: Induction of cell cycle arrest in human SW480 cells assessed as accumulation of cells at S phase at 20 to 35 nM incubated for 72 hrs by propidium iodide staining based flow cytometric analysis; assay type: functional
SW480 [14] = test: Induction of cell death in human SW480 cells assessed as accumulation of large nuclei at 2 uM incubated for 72 hrs by Hoechst […] staining based fluorescence microscopic method; assay type: functional
SW480 [15] = test: Induction of cell cycle arrest in human SW480 cells assessed as accumulation in G2/M phase at 2 to 4 uM for 72 hrs by propidium iodide staining based flow cytometric analysis; assay type: functional
HL-60 [16] = test: Induction of cell cycle arrest in human HL60 cells assessed as accumulation in G2/M phase at 2 to 4 uM 24 hrs by propidium iodide staining based flow cytometric analysis; assay type: functional
SW480 [17] = test: Induction of cell cycle arrest in human SW480 cells assessed as S phase cell cycle arrest at 2 to 4 uM incubated for 72 hrs by propidium iodide staining based flow cytometric analysis; assay type: functional
HL-60 [18] = test: Induction of apoptosis in human HL60 cels assessed as activation of caspases preincubated for 24 hrs followed by addition of fluorescent pan-caspase substrate incubated for 90 mins by fluorescence based assay; assay type: functional, cell-based
SW480 [19] = test: Induction of apoptosis in human SW480 cells assessed as activation of caspases preincubated for 72 hrs followed by addition of fluorescent pan-caspase substrate incubated for 90 mins by fluorescence based assay; assay type: functional, cell-based
SW480 [20] = test: Induction of cell death in human SW480 cells assessed as accumulation of large cells at 2 uM incubated for 72 hrs by Hoechst […] staining based fluorescence microscopic method; assay type: functional

Row | Compound | fold change (FC) (SW480 [1]) | fold change (FC) (HL-60 [2]) | Activity [5] | Activity [6] | Activity [7] | other results
1 | COc1cc(OC)c2cc3c(nc2c1)-c1nc2ccc(Br)cc2c(=O)n1C3 | 0.89 | inactive | – | – | – | –
2 | COc1cc(OC)c2cc3c(nc2c1)-c1nc2ccc(I)cc2c(=O)n1C3 | 0.99 | 0.83 | – | – | – | –
3 | CC[C@@]1(O)C(=O)OCc2c1cc1n(c2=O)Cc2cc3ccccc3nc2-1 [CAMPTOTHECIN] | 0.3 | 0 | 26.3% | 6% | 2.1% | IC50 (SW480 [3]): 210 nM; IC50 (HL-60 [4]): 18 nM; Activity (HL-60 [8]): Dose-dependent effect; Activity (SW480 [9]): inactive; Activity (SW480 [10]): inactive; Activity (HL-60 [11]): inactive; Activity (HL-60 [12]): Active; Activity (SW480 [13]): Active
4 | COc1cc(OC)c2cc3c(nc2c1)-c1nc2ccc(N)cc2c(=O)n1C3 | 0.98 | 0.73 | – | – | – | –
5 | Nc1ccc2nc3c(cc2c1)Cn1c-3nc2ccccc2c1=O | 0.24 | 0.26 | – | – | – | –
6 | O=c1c2ccccc2nc2n1Cc1cc3ccccc3nc1-2 [LUOTONIN A] | 0.91 | 0.83 | 16.3% | 2.6% | 2.1% | –
7 | Nc1ccc2nc3n(c(=O)c2c1)Cc1cc2cccc(N)c2nc1-3 | 0.31 | 0.01 | 12.6 to 13% | 9 to 9.2% | 2.6% | IC50 (SW480 [3]): 2030 nM; IC50 (HL-60 [4]): 820 nM; Activity (SW480 [14]): Active; Activity (SW480 [15]): Active; Activity (HL-60 [16]): Active; Activity (SW480 [17]): inactive; Activity (HL-60 [18]): Active; Activity (SW480 [19]): inactive; Activity (SW480 [20]): Active
8 | O=c1c2ccccc2nc2n1Cc1cc3cccc(F)c3nc1-2 | 0.88 | 0.61 | – | – | – | –
9 | COc1ccc2nc3c(cc2c1)Cn1c-3nc2ccc(Br)cc2c1=O | inactive | 0.82 | – | – | – | –
10 | Nc1cccc2cc3c(nc12)-c1nc2ccccc2c(=O)n1C3 | 0.58 | 0.02 | – | – | – | –

— ChEMBL document CHEMBL4619719, “A-ring and E-ring modifications of the cytotoxic alkaloid Luotonin A: Synthesis, computational and biological studies” (Bioorg Med Chem, 2020)
